Results: ChEMBL document CHEMBL1201862, “PubChem BioAssay data set” (2004)
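Assay format: 96-well plates, 48-hour exposure. Abbreviation: GI50, concentration required for 50% inhibition of growth.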 Activity calls are given as the source filed them. Cut-off read from the data, not from the text of the source: active = GI50 up to about 1.1 µM and inactive = higher.

How the values were obtained:
Assay in all cases: NCI anticancer screen, dose series, 48 h
BT-549 = system: BT-549
NCI-H460 = system: NCI-H460
HCT-15 = system: HCT-15
M14 = system: M14
HL-60 = system: HL-60
MDA-N = system: MDA-N
SR = system: SR
U-251 = system: U-251
UACC-257 = system: UACC-257
Malme-3M = system: Malme-3M
RXF 393 = system: RXF 393
EKVX = system: EKVX
OVCAR-8 = system: OVCAR-8
OVCAR-5 = system: OVCAR-5
OVCAR-3 = system: OVCAR-3
786-0 = system: 786-0
NCI/ADR-RES = system: NCI/ADR-RES
NCI-H23 = system: NCI-H23
MOLT-4 = system: MOLT-4
A498 = system: A498
IGROV-1 = system: IGROV-1
NCI-H226 = system: NCI-H226
SNB-19 = system: SNB-19
COLO 205 = system: COLO 205
LOX IMVI = system: LOX IMVI
MDA-MB-231 = system: MDA-MB-231
OVCAR-4 = system: OVCAR-4
SK-OV-3 = system: SK-OV-3
A549 = system: A549
K562 = system: K562
SN12C = system: SN12C
HCC 2998 = system: HCC 2998
UO-31 = system: UO-31
CAKI-1 = system: CAKI-1
DU-145 = system: DU-145
SK-MEL-28 = system: SK-MEL-28
SF-268 = system: SF-268
HT-29 = system: HT-29
CCRF-CEM = system: CCRF-CEM
SNB-75 = system: SNB-75
HCT-116 = system: HCT-116
SW-620 = system: SW-620
Hs-578T = system: Hs-578T
SK-MEL-2 = system: SK-MEL-2
HOP-92 = system: HOP-92
SF-295 = system: SF-295
MCF7 = system: MCF7
MDA-MB-435 = system: MDA-MB-435
ACHN = system: ACHN
SK-MEL-5 = system: SK-MEL-5
NCI-H522 = system: NCI-H522
KM12 = system: KM12
RPMI-8226 = system: RPMI-8226
HOP-62 = system: HOP-62
T47D = system: T47D
UACC-62 = system: UACC-62
PC-3 = system: PC-3
SF-539 = system: SF-539
TK-10 = system: TK-10

In the case of COC(=O)C1OC(O[C@H]2CC[C@]3(C)[C@H]4CC=C5[C@@H]6CC(C)(C)CC[C@]6(C(=O)OC)[C@H](O)C[C@@]5(C)[C@]4(C)CC[C@H]3C2(C)C)C(O)C(O)C1O (some centres undefined), the GI50 (BT-549) is reported as 15.7 µM (inactive), the GI50 (NCI-H460) is reported as 6.49 µM (inactive) and the GI50 (HCT-15) is reported as 10.5 µM. The GI50 (M14) was 5.22 µM (inactive), the GI50 (HL-60) was 3.37 µM (inactive) and the GI50 (MDA-N) was 12.2 µM (inactive). The GI50 (SR) was 3.42 µM (inactive), the GI50 (U-251) was 11.6 µM (inactive) and the GI50 (UACC-257) was 15.3 µM (inactive). For the same molecule, the GI50 (Malme-3M) was 12.8 µM (inactive), the GI50 (RXF 393) was 5.22 µM (inactive) and the GI50 (EKVX) was 7.96 µM (inactive). For the same molecule, the GI50 (OVCAR-8) was 13.2 µM (inactive), the GI50 (OVCAR-5) was 13.1 µM (inactive) and the GI50 (OVCAR-3) was 10.4 µM (inactive). For the same molecule, the GI50 (786-0) was 8.49 µM (inactive), the GI50 (NCI/ADR-RES) was 12.2 µM (inactive) and the GI50 (NCI-H23) was 6.21 µM (inactive). The GI50 (MOLT-4) was 3.61 µM (inactive), the GI50 (A498) was 12.6 µM (inactive) and the GI50 (IGROV-1) was 12.3 µM (inactive). The GI50 (NCI-H226) was 15 µM (inactive), the GI50 (SNB-19) was 13.9 µM (inactive) and the GI50 (COLO 205) was 4.98 µM (inactive). The GI50 (LOX IMVI) was 3.18 µM (inactive), the GI50 (MDA-MB-231) was 9.33 µM (inactive) and the GI50 (OVCAR-4) was 5.68 µM (inactive). For the same molecule, the GI50 (SK-OV-3) was 15 µM (inactive), the GI50 (A549) was 4.08 µM (inactive) and the GI50 (K562) was 2.8 µM (inactive). For the same molecule, the GI50 (SN12C) was 12.9 µM (inactive), the GI50 (HCC 2998) was 2.7 µM (inactive) and the GI50 (UO-31) was 14 µM (inactive). For the same molecule, the GI50 (CAKI-1) was 14.2 µM (inactive), the GI50 (DU-145) was 10 µM (inactive) and the GI50 (SK-MEL-28) was 11.1 µM (inactive). The GI50 (SF-268) was 13.2 µM (inactive), the GI50 (HT-29) was 3.21 µM (inactive) and the GI50 (CCRF-CEM) was 3.1 µM (inactive). For the same molecule, the GI50 (SNB-75) was 14.8 µM (inactive), the GI50 (HCT-116) was 4.4 µM (inactive) and the GI50 (SW-620) was 12.4 µM (inactive). For the same molecule, the GI50 (Hs-578T) was 13.8 µM (inactive), the GI50 (SK-MEL-2) was 15.1 µM (inactive) and the GI50 (HOP-92) was 16.8 µM (inactive). The GI50 (SF-295) was 10.4 µM (inactive), the GI50 (MCF7) was 11 µM (inactive) and the GI50 (MDA-MB-435) was 13.1 µM (inactive). For the same molecule, the GI50 (ACHN) was 11.5 µM (inactive), the GI50 (SK-MEL-5) was 13.4 µM (inactive) and the GI50 (NCI-H522) was 1.57 µM (inactive). The GI50 (KM12) was 1.67 µM (inactive), the GI50 (RPMI-8226) was 4.9 µM (inactive) and the GI50 (HOP-62) was 17 µM (inactive). The GI50 (T47D) was 12.6 µM (inactive), the GI50 (UACC-62) was 12.5 µM (inactive) and the GI50 (PC-3) was 6.64 µM (inactive).

With O=[N+]([O-])C(=C(N1CCCCC1)N1CCCCC1)/C(Cl)=C(\Cl)Br the GI50 (BT-549) was 33.8 µM (inactive), the GI50 (NCI-H460) was 21 µM (inactive) and the GI50 (HCT-15) was 16.4 µM. The GI50 (M14) was 20.6 µM (inactive), the GI50 (HL-60) was 15.2 µM (inactive) and the GI50 (MDA-N) was 29.2 µM (inactive). The GI50 (SR) was 5.93 µM (inactive), the GI50 (U-251) was 18.7 µM (inactive) and the GI50 (UACC-257) was 23.8 µM (inactive). The GI50 (Malme-3M) was 28.2 µM (inactive), the GI50 (RXF 393) was 20.5 µM (inactive) and the GI50 (EKVX) was 16.4 µM (inactive). The GI50 (OVCAR-8) was 16.4 µM (inactive), the GI50 (SF-539) was 24.4 µM (inactive) and the GI50 (OVCAR-3) was 29.3 µM (inactive). For the same molecule, the GI50 (786-0) was 23.9 µM (inactive), the GI50 (NCI/ADR-RES) was 27.2 µM (inactive) and the GI50 (NCI-H23) was 18.7 µM (inactive). The GI50 (MOLT-4) was 18.7 µM (inactive), the GI50 (A498) was 21.5 µM (inactive) and the GI50 (IGROV-1) was 25.8 µM (inactive). For the same molecule, the GI50 (NCI-H226) was 20.8 µM (inactive), the GI50 (SNB-19) was 26.4 µM (inactive) and the GI50 (COLO 205) was 20.3 µM (inactive). The GI50 (LOX IMVI) was 16.1 µM (inactive), the GI50 (MDA-MB-231) was 27.2 µM (inactive) and the GI50 (OVCAR-4) was 24 µM (inactive). For the same molecule, the GI50 (TK-10) was 25.5 µM (inactive), the GI50 (SK-OV-3) was 48.1 µM (inactive) and the GI50 (A549) was 32.7 µM (inactive). For the same molecule, the GI50 (K562) was 18.3 µM (inactive), the GI50 (SN12C) was 29.7 µM (inactive) and the GI50 (HCC 2998) was 17.5 µM (inactive). For the same molecule, the GI50 (UO-31) was 34.5 µM (inactive), the GI50 (CAKI-1) was 13.3 µM (inactive) and the GI50 (DU-145) was 30.8 µM (inactive). For the same molecule, the GI50 (SK-MEL-28) was 19.5 µM (inactive), the GI50 (SF-268) was 29.6 µM (inactive) and the GI50 (HT-29) was 29.7 µM (inactive). The GI50 (CCRF-CEM) was 11.1 µM (inactive), the GI50 (SNB-75) was 16.6 µM (inactive) and the GI50 (HCT-116) was 14.2 µM (inactive). For the same molecule, the GI50 (SW-620) was 15.6 µM (inactive), the GI50 (Hs-578T) was 0.871 µM (active) and the GI50 (HOP-92) was 19.4 µM (inactive). For the same molecule, the GI50 (SF-295) was 54.5 µM (inactive), the GI50 (MCF7) was 21.9 µM (inactive) and the GI50 (MDA-MB-435) was 20.5 µM (inactive). For the same molecule, the GI50 (ACHN) was 24.9 µM (inactive), the GI50 (SK-MEL-5) was 21 µM (inactive) and the GI50 (NCI-H522) was 18.1 µM (inactive). The GI50 (KM12) was 23.1 µM (inactive), the GI50 (RPMI-8226) was 17.1 µM (inactive) and the GI50 (HOP-62) was 44.7 µM (inactive). For the same molecule, the GI50 (T47D) was 25.2 µM (inactive), the GI50 (UACC-62) was 10.7 µM (inactive) and the GI50 (PC-3) was 22.9 µM (inactive).
